Results reported in PubChem BioAssay (NCI).
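Interpolation was linear, between the two tested concentrations surrounding the appropriate level; five concentrations were tested over 48 hours in 96-well plates. TGI is the concentration that stops growth completely.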

How the values were obtained:
Experiment in all cases: NCI anticancer screen, dose series, 48 h
NCI/ADR-RES ovarian = tested on: NCI/ADR-RES ovarian
LOX IMVI melanoma = tested on: LOX IMVI melanoma
SF-539 CNS = tested on: SF-539 CNS
EKVX NSCLC = tested on: EKVX NSCLC
NCI-H460 lung = tested on: NCI-H460 lung
PC-3 prostate = tested on: PC-3 prostate
TK-10 renal = tested on: TK-10 renal
T-47D breast = tested on: T-47D breast
SNB-75 CNS = tested on: SNB-75 CNS
UACC-62 melanoma = tested on: UACC-62 melanoma
IGROV1 ovarian = tested on: IGROV1 ovarian
SNB-19 CNS = tested on: SNB-19 CNS
OVCAR-4 ovarian = tested on: OVCAR-4 ovarian
SW-620 colon = tested on: SW-620 colon
MCF7 breast = tested on: MCF7 breast

| Compound | TGI (NCI/ADR-RES ovarian) [µM] | TGI (LOX IMVI melanoma) [µM] | TGI (SF-539 CNS) [µM] | TGI (EKVX NSCLC) [µM] | TGI (NCI-H460 lung) [µM] | TGI (PC-3 prostate) [µM] | TGI (TK-10 renal) [µM] | TGI (T-47D breast) [µM] | TGI (SNB-75 CNS) [µM] | TGI (UACC-62 melanoma) [µM] | TGI (IGROV1 ovarian) [µM] | TGI (SNB-19 CNS) [µM] | TGI (OVCAR-4 ovarian) [µM] | TGI (SW-620 colon) [µM] | TGI (MCF7 breast) [µM] |
| --- | --- | --- | --- | --- | --- | --- | --- | --- | --- | --- | --- | --- | --- | --- | --- |
| CN1C=COC1N=C1CCCCC1 (stereo not given) | > 100 | > 100 | > 100 | > 100 | > 100 | > 100 | > 100 | > 100 | > 100 | > 100 | > 100 | 12 | > 100 | 12.1 | > 100 |
| COc1ccc(Cn2c3ccc([N+](=O)[O-])cc3c(=O)n2Cc2ccccn2)cc1 | > 100 | > 100 | > 100 | > 100 | > 100 | > 100 | > 100 | 77.4 | > 100 | > 100 | > 100 | > 100 | > 100 | > 100 | > 100 |
| N#Cc1ccc2[nH]c3c(c2c1)CC(=O)Nc1ccccc1-3 | > 100 | > 100 | > 100 | > 100 | > 100 | > 100 | > 100 | > 100 | > 100 | > 100 | > 100 | > 100 | > 100 | > 100 | > 100 |
| O=C1c2cccnc2-c2nccc3c2c1nc1ccc(Br)cc13 | 0.176 | 0.0806 | 0.141 | 0.311 | 0.125 | 0.234 | 0.749 | 0.552 | 0.595 | 0.124 | 0.143 | 0.295 | 0.324 | 0.17 | < 0.03 |
| OC1(c2ccc(Cl)cc2)c2c(c3ccccc3c3ccccc23)C2=NCCN21 (stereo not given) | 25.5 | 73.8 | 24.5 | 35.4 | 41.4 | 49.6 | 16.8 | > 100 | 7.52 | 32 | 18.2 | 27.8 | 11 | 32.8 | 41.7 |
| Nc1ccccc1OCCCOc1ccccc1N | > 100 | > 100 | > 100 | > 100 | > 100 | > 100 | > 100 | > 100 | > 100 | > 100 | > 100 | > 100 | > 100 | > 100 | > 100 |
| COc1ccc(N2N=NN(C(C)C)/C2=C(/Cl)c2nnnn2-c2ccc(OC)cc2)cc1 | 61.2 | 6.82 | 33.5 | 36.1 | 36.6 | 28.3 | 30.1 | 15.3 | 26.5 | 28.7 | 28.7 | 31.6 | 11.6 | 3.96 | 22.6 |
| C[C@@]12C[C@@H](c3ccccc3O1)N1Cc3ccccc3CSC1=N2 | > 100 | > 100 | > 100 | > 100 | > 100 | > 100 | > 100 | > 100 | > 100 | > 100 | > 100 | > 100 | > 100 | > 100 | > 100 |
| O=C(/C=C/c1ccccc1)Oc1cccc(Br)c1 | > 100 | > 100 | > 100 | > 100 | > 100 | > 100 | > 100 | > 100 | > 100 | > 100 | > 100 | > 100 | > 100 | > 100 | 47.4 |
| COC1=CC(=O)c2nc3ccccc3c3ccnc1c23 | 51.3 | 22.7 | 13.3 | 25.8 | 8.33 | > 31.3 | > 66.9 | > 100 | 46.1 | 2.95 | 25.1 | > 64.9 | 18.8 | 35.1 | 15.2 |
| COc1ccc(N2C(=O)C3c4[nH]c5ccccc5c4C4c5ccccc5CC4C3C2=O)cc1 (stereo not given) | > 100 | > 100 | > 100 | > 100 | > 100 | > 100 | > 100 | > 100 | > 100 | > 100 | > 100 | > 100 | > 100 | > 100 | > 100 |
| CC(=O)OCC1OC(n2c(N)c(C#N)c(-c3cccc(Cl)c3)c(C#N)c2=S)C(OC(C)=O)C(OC(C)=O)C1OC(C)=O (stereo not given) | 96.4 | 30.1 | 27.7 | > 100 | > 100 | > 100 | 54.2 | 59 | 56.2 | > 100 | > 100 | > 100 | > 100 | > 100 | > 100 |
| CO[C@]12CC(=O)C3(C(C[C@H]4CC5CC[C@H]6C[C@@H](OC(C)=O)CC[C@]6(OC(C)=O)C5C[C@@]43C)C1)C1C[C@H]3[C@@H]4CC[C@H]5C[C@@H](OC(C)=O)CC[C@]5(OC(C)=O)[C@H]4CC[C@]3(C)C12 (stereo not given in full) | > 100 | > 100 | > 100 | > 100 | > 100 | > 100 | > 100 | > 100 | > 100 | > 100 | > 100 | > 100 | > 100 | > 100 | > 100 |
